Where “and” joins values, the source holds several entries; their conditions need not be identical. Equal entries are not always repeated.
Legend:
[1] = tested on: E. multilocularis metacestode vesicles; assay: Phosphoglucose isomerase (PGI) release assay (damage-marker release) on metacestode vesicles; assay type: cell-based, Echinococcus multilocularis; settings: 10 μM; for PGI d5 (relative PGI release): 5 days; for PGI d12 (relative PGI release): 12 days
Experimental: In order to quantify the drug-induced damage on whole metacestode vesicles, phosphoglucose isomerase (PGI) assay was performed as described previously ([Stadelmann et al., 2010]) with few adaptations published recently ([Kaethner et al., 2023]). In short, 8 to 12 weeks-old metacestode vesicles were purified using 2 % sucrose with subsequent washes in PBS. Metacestode vesicles were diluted in two volumes of DMEM without phenol red containing penicillin (100 U/mL) and streptomycin (100 μg/mL). […] 0.1 % DMSO was used as a negative solvent control and 0.1 % Triton X-100 was used as a positive total damage control. Metacestode vesicles were incubated under a humid, 5 % CO2 atmosphere at 37 °C. After five and twelve days, supernatant was taken and pictures were made using a Nikon SMZ18 stereo microscope (Nikon, Basel, Switzerland) at 7.5 × magnification. PGI activity in the supernatants was measured on a HIDEX Sense microplate reader (Hidex, Turku, Finland). The corresponding values of the DMSO controls were subtracted from the values of the compounds and then PGI activity was calculated relative to 0.1 % Triton X-100. […] IC50 values were calculated applying the 3 parameter Weibull type 1 in R for each of the three independent experiments ([Ritler et al., 2020]).

[2] = tested on: E. multilocularis metacestode vesicles; assay: Metacestode vesicle viability assay (ATP, CellTiter-Glo); assay type: cell-based, Echinococcus multilocularis
Experimental: Viability was assessed after 12 days using the same metacestode vesicles as for the PGI release assay. Triton X-100 was added to each well to a final concentration of 0.1 %. Subsequently the metacestode vesicles were broken mechanically and 50 μL of the supernatant was mixed with 50 μL of CellTiter-Glo® buffer (Promega, Dübendorf, Switzerland). Measurements were performed on a HIDEX Sense microplate reader.

[3] = overview screen, singlets, relative to 0.1 % Triton X-100, DMSO subtracted
[4] = overview screen, 10 μM, singlets, 12 days, relative to DMSO control
[5] = confirmation screen, triplicates, mean

| Compound | PGI d5 (relative PGI release) [1, 3] | PGI d12 (relative PGI release) [1, 3] | Viability d12 (relative viability) [2, 4] | also measured |
| --- | --- | --- | --- | --- |
| CCOC(=O)N1CCN(c2ccc(Cl)cc2)CC1 [MMV1578898] | -0.03171% | 1.172% | 47.7603% |  |
| O=C1NC(=S)N/C1=C\c1cc(Br)cc(Br)c1O [MMV1578569] | 1.516% | -5.575% | 64.4597% |  |
| CC[C@@]1(O)C(=O)OCc2c1cc1n(c2=O)Cc2cc3c(CN(C)C)c(O)ccc3nc2-1.Cl [MMV1633678] | 0.263% | -2.724% | 288.666% |  |
| C=CCc1cc(Cc2cnc(N)nc2N)cc(OC)c1O [MMV1580849] | 24.5% and 24.5063% | -6.332% | 47.2094% |  |
| CCCCCc1ccc(C(=O)NCCn2cc(CCCCCc3c[nH]c(N)n3)nn2)cc1.Cl [MMV1580847] | 2.795% | 5.023% | 106.136% |  |
| CCN(CC)S(=O)(=O)c1ccc(Cl)c(C(=O)Nc2sc3c(c2C#N)CCCC3)c1 [MMV1634384] | 0.5897% | 3.142% | 106.793% |  |
| CCc1nc2ccc(Cl)cn2c1C(=O)NCc1ccc(N2CCC(c3ccc(OC(F)(F)F)cc3)CC2)cc1 [MMV687696] | -3.859% | -6.627% | 83.8288% |  |
| Cc1ccc(S(=O)(=O)Nc2cccc3cccnc23)cc1 [MMV233495] | 2.157% | 26.0665% | 70.919% |  |
| Clc1cc(Cl)c2c(c1)CCc1ccccc1C2n1ccnc1 (centres unmarked) [MMV1634492] | -1.087% | -25.0724% | 206.655% |  |
| NNC(=O)c1ccncc1 [MMV002169] | 1.814% | -1% | 113.159% |  |
| O=C(O)c1ccc(-n2nc(-c3ccccc3O)nc2-c2ccccc2O)cc1 [MMV640014] | -1.416% | -24.5374% | 145.619% |  |
| Clc1cccc(-c2nnc(-c3ccccc3)o2)c1 [MMV141011] | -1.462% | -13.7141% | 31.8959% |  |
| O=S(=O)(Nc1ccccc1)c1ccc(NC(=S)Nc2ccccc2)cc1 [MMV1578562] | -3.292% | -3.243% | 118.128% |  |
| O[C@@](Cn1cnnn1)(c1ccc(F)cc1F)C(F)(F)c1ccc(-c2ccc(OCC(F)(F)F)cc2)cn1 [MMV1634386] | -2.798% | -27.2627% | 107.711% |  |
| Fc1ccc(-n2cc(Cn3c(-c4cccc(F)c4)nc4ccccc43)nn2)cc1 [MMV1580850] | -2.0582% | -24.0097% | 34.9853% |  |
| Oc1cccc(C(Nc2nccs2)c2ccc3cccnc3c2O)c1 (centres unmarked) [MMV642550] | 8.475% | 88.2133% | 17.7096% | PGI d5 (relative PGI release) [1, 5]: 0.17%; PGI d12 (relative PGI release) [1, 5]: 0.81%; Viability d12 (relative viability) ([2]; confirmation screen, 10 μM, triplicates, mean, 12 days): 142.26% |

| Compound | PGI d5 (relative PGI release) [1, 3] | PGI d12 (relative PGI release) [1, 3] | Viability d12 (relative viability) [2, 4] | also measured |
| --- | --- | --- | --- | --- |
| C=C[C@]1(C)C[C@@H](OC(=O)CS[C@@H]2C[C@H]3CC[C@@H](C2)N3C)[C@]2(C)[C@H](C)CC[C@]3(CCC(=O)[C@H]32)[C@@H](C)[C@@H]1O [MMV1633674] | -1.377% | 19.1844% |  | Viability d12 (relative viability) ([2]; 10 µM): 92.0635% |
| Clc1cc2nc(C3CCNCC3)n(Cc3ccc(CNCCc4c[nH]cn4)cc3)c2cc1Cl [MMV1580842] | -1.296% | -12.8721% | 102.952% |  |
| Nc1cc(-c2nc3ccccc3[nH]2)n[nH]c1=O [MMV975972] | 0.8096% | -4.832% | 175.408% |  |
| N#C/C(=C1/SC[C@@H](c2ccc(Cl)cc2Cl)S1)n1ccnc1 [MMV1782224] | 12.0659% | -22.8965% |  | Viability d12 (relative viability) ([2]; 10 µM): 41.9155% |
| c1cnc(NCc2ccc(CNc3ncccn3)cc2)nc1 [MMV1580490] | 0.6457% | 0.4288% | 45.3723% |  |
| O=C(c1nc2c(C(F)(F)F)cc(C3CC3)cn2c1Cl)N1CCN([C@H]2CC[C@H](O)CC2)C(=O)C1 [MMV1634396] | 0.0006202% | 0.1204% | 113.417% |  |
| N#Cc1c(F)c(Cl)c(NCc2ccccc2)c(C#N)c1F [MMV1582496, 4-(benzylamino)-5-chloro-2,6-difluorobenzene-1,3-dicarbonitrile] | 23.5135% | 27.7197% |  | activity in the PGI release assay (in words) ([1]; overview screen, twelve days, cut-off PGI release ≥20 %): active in the PGI assay after twelve days; viability at 10 µM ([2]; Echinococcus multilocularis, 288 h, overview screen, 10 μM, singlets, 12 days, relative to DMSO control, read-out: Viability d12 (relative viability)): 121%; effect on metacestode vesicle viability (in words) ([2]; overview screen, 10 μM, twelve days, cut-off viability ≤30 %): did not reduce the metacestode vesicle viability |
| Cn1cc(NC(=O)c2cc(NC(=O)c3ccc(/C=C/c4cnc5ccccc5c4)cc3)cn2C)cc1C(=O)NCCN1CCOCC1 [MMV1634391] | -0.2305% | 21.1965% | 70.2948% |  |
| O=S(=O)(Nc1ccc(-n2cccc2)cc1)c1ccc(Cl)c(Cl)c1 [MMV1505642] | -0.09064% | -9.692% | 76.9008% |  |
| CO/N=C(\C(=O)N[C@@H]1C(=O)N2C(C(=O)OCOC(=O)C(C)(C)C)=C(/C=C\c3scnc3C)CS[C@H]12)c1csc(N)n1 [MMV002560] | -2.539% | -11.7788% | 19.8723% |  |
| Cc1cccc(C)c1C(=O)Nc1nc(-c2ccccn2)cc2ccccc12 [MMV1581558] | 1.519% | 3.408% | 99.5465% |  |
| O=C(Nc1nnc(-c2ccccc2)o1)c1ccc(F)cc1 [MMV1578578] | -0.5299% | 45.2443% | 33.8998% |  |
| O=c1[nH]c(=O)n(Cc2cccc(Oc3ccccc3)c2)cc1Nc1ccccc1 [MMV1782107] | 0.6712% | -19.0475% | 211.334% |  |
| C[C@H]1CC[C@]2(NC1)O[C@H]1C[C@H]3[C@@H]4CC[C@H]5C[C@@H](O)CC[C@]5(C)[C@H]4CC[C@]3(C)[C@H]1[C@@H]2C.Cl [MMV003069] | -0.8739% | -0.2652% | 243.729% |  |
| C[C@H](NC(CC(=O)c1ccccc1C(F)(F)F)C(=O)O)c1ccccc1 (some centres unmarked) [MMV1579778] | -3.315% | -4.896% | 114.059% |  |
